Results reported in the NIST ThermoML archive (doi:10.1021/je049930e).

Assay: wn = mass fraction of the nth substance listed
Settings: Liquid, Vibrating tube method

CC(=O)c1ccccc1 [acetophenone] + CCCCCCCCO
mass density [kg/m3]
Settings	100 kPa	10000 kPa	15000 kPa	20000 kPa	25000 kPa	30000 kPa	35000 kPa	40000 kPa	45000 kPa	50000 kPa
298.15 K, w2 = 0.1075	996	1001.7	1004.5	1007.2	1009.8	1012.3	1014.9	1017.3	1019.7	1022.1
298.15 K, w2 = 0.2132	971.2	977	979.8	982.5	985.2	987.7	990.3	992.8	995.1	997.5
298.15 K, w2 = 0.3172	947.9	953.8	956.6	959.4	962	964.7	967.2	969.7	972.2	974.6
298.15 K, w2 = 0.4195	926.2	932.2	935.1	937.9	940.6	943.2	945.8	948.3	950.7	953.2
298.15 K, w2 = 0.5201	905.9	911.9	914.9	917.6	920.3	923	925.6	928.1	930.6	933
298.15 K, w2 = 0.6192	886.6	892.7	895.6	898.4	901.2	903.8	906.4	909	911.4	913.8
298.15 K, w2 = 0.7166	868.6	874.7	877.6	880.4	883.2	885.9	888.5	891	893.5	895.9
298.15 K, w2 = 0.8126	851.8	857.9	860.9	863.7	866.5	869.2	871.8	874.2	876.8	879.2
298.15 K, w2 = 0.907	836	842.1	845.1	848	850.7	853.4	855.9	858.5	861	863.3
318.15 K, w2 = 0.1075	978.9	985.3	988.3	991.3	994.1	997	999.5	1002.2	1004.8	1007.3
318.15 K, w2 = 0.2132	954.5	960.9	964	967	969.9	972.7	975.4	978	980.7	983.2
318.15 K, w2 = 0.3172	931.3	937.8	940.9	943.9	946.9	949.7	952.4	955.1	957.7	960.3
318.15 K, w2 = 0.4195	910	916.6	919.7	922.8	925.7	928.6	931.4	934	936.8	939.3
318.15 K, w2 = 0.5201	890	896.7	899.8	902.9	905.9	908.7	911.5	914.2	916.9	919.5
318.15 K, w2 = 0.6192	871.1	877.8	881.1	884.1	887.1	890	892.7	895.4	898.1	900.7
318.15 K, w2 = 0.7166	853.4	860.2	863.3	866.4	869.5	872.4	875.2	877.9	880.5	883.1
318.15 K, w2 = 0.8126	837	843.9	847	850.2	853.2	856	858.9	861.6	864.3	866.8
318.15 K, w2 = 0.907	821.6	828.3	831.6	834.7	837.7	840.6	843.4	846.1	848.8	851.3
348.15 K, w2 = 0.1075	952.5	959.7	963.2	966.6	969.9	973.1	976.1	979.2	982	984.8
348.15 K, w2 = 0.2132	928.4	935.9	939.4	942.8	946.1	949.2	952.3	955.3	958.2	961
348.15 K, w2 = 0.3172	905.7	913.1	916.7	920.1	923.5	926.7	929.8	932.9	935.9	938.6
348.15 K, w2 = 0.4195	884.7	892.4	896	899.5	902.9	906.2	909.3	912.3	915.3	918.2
348.15 K, w2 = 0.5201	865.1	872.8	876.5	880	883.4	886.6	889.6	892.8	895.9	898.7
348.15 K, w2 = 0.6192	846.9	854.6	858.3	861.8	865.3	868.5	871.7	874.8	877.8	880.7
348.15 K, w2 = 0.7166	829.6	837.4	841.1	844.6	848	851.3	854.5	857.6	860.5	863.4
348.15 K, w2 = 0.8126	813.7	821.5	825.2	828.7	832.1	835.4	838.6	841.7	844.6	847.5
348.15 K, w2 = 0.907	798.4	806.4	810.2	813.8	817.2	820.4	823.6	826.7	829.7	832.5
